These are literature values, as cited in patent US11666623B2, “Tetramaleimide linkers and use thereof” (NewBio Therapeutics, Inc., priority 2017, dated 2023).

SMILES strings stand for the structures.

Usually IC50 stands for the point on the concentration scale where inhibition reaches its midpoint.

In the data set the test system is human carcinoma lines. The following applies: cited from earlier work.

For `COc1cccc2c1C(=O)c1c(O)c3c(c(O)c1C2=O)C[C@@](O)(C(=O)CO)C[C@@H]3O[C@H]1C[C@H](N)[C@H](O)[C@H](C)O1` [doxorubicin, Doxorubicin], the IC50 is 100 to 200 nM.
